Broadly, the IC50 is the concentration at which inhibition is half-maximal.

Where only a bound is given, the exact number is not on record here.

The target of this assay is T1, Nav1.7 (or SCN9A) channel (Homo sapiens, UniProt Q15858).
T1 construct: expressed in transfected cells
T1 sequence (Q15858 whole entry): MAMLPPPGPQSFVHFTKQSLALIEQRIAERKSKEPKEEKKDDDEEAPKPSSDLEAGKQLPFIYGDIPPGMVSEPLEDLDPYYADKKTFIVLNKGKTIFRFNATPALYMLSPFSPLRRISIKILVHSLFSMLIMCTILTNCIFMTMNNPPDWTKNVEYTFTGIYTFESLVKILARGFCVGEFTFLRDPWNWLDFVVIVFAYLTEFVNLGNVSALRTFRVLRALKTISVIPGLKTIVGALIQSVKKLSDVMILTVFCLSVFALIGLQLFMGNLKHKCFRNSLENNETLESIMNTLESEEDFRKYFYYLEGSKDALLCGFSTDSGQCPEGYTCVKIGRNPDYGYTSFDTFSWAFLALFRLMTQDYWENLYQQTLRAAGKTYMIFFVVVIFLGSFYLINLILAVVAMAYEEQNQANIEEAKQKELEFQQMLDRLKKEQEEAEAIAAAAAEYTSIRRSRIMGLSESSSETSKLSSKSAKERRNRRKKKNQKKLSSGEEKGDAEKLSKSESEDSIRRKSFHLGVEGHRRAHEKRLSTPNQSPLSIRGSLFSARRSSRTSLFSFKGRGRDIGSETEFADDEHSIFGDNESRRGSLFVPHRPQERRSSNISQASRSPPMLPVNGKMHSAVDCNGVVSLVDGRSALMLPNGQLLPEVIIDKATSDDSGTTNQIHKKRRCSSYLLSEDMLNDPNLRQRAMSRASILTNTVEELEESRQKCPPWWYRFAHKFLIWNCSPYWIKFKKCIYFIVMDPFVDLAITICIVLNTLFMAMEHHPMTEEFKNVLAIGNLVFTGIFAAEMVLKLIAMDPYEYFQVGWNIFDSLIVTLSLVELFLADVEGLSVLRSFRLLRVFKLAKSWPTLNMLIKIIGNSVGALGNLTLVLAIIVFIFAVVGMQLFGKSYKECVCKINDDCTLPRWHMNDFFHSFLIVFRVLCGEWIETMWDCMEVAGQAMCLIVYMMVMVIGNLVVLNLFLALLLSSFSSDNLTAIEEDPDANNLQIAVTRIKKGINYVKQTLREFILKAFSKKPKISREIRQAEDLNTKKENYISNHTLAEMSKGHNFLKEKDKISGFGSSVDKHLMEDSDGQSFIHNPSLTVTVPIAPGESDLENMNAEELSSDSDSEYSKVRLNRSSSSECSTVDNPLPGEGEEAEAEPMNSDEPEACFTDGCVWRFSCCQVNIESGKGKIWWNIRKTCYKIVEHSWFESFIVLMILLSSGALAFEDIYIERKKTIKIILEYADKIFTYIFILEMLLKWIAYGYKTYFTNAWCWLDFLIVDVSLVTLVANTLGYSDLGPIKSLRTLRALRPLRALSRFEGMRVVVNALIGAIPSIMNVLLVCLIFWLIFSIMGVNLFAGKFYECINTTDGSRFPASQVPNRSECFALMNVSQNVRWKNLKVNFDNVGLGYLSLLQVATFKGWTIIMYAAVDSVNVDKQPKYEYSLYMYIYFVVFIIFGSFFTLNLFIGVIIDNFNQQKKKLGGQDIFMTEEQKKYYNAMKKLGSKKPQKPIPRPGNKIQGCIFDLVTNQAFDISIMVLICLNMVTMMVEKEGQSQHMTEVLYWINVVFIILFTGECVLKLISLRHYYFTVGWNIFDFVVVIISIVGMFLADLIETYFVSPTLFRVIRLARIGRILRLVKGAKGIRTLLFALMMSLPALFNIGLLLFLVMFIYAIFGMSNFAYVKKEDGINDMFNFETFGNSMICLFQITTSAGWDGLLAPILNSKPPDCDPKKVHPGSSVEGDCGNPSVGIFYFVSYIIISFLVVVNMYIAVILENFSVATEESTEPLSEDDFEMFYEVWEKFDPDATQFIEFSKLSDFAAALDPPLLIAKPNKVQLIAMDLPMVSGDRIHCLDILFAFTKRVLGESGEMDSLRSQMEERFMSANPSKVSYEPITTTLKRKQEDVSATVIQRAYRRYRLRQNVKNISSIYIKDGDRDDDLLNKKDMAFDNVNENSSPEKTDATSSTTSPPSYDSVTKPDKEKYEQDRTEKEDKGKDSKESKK
Kind of assay: Nav1.7 (hSCN9A) block in HEK cells, PatchXpress 7000 automated electrophysiology, estimated IC50 (EIC50). It counts as cell-based. The following applies: PatchXpress assay; HEK cells stably transfected with hSCN9A, voltage-clamped at V1/2 of inactivation. The protocol: The ability of the compounds of formula (I) to block the Nav1.7 (or SCN9A) channel were measured using the assay described below.
Human Embryonic Kidney (HEK) cells were transfected with an hSCN9A construct using lipofectamine reagent (Invitrogen), using standard techniques. Cells stably expressing the hSCN9A constructs were identified by their resistance to G-418 (400 μg/ml). Clones were screened for expression using the whole-cell voltage-clamp technique.
HEK cells stably transfected with hSCN9A were maintained in DMEM medium supplemented with 10% heat-inactivated fetal bovine serum and 400 μg/ml G-418 in an incubator at 37° C. with a humidified atmosphere of 10% CO2. For HTS, cells were harvested from flasks by trypsinization and replated in an appropriate multi-well plate (typically 96 or 384 wells/plate) such that confluence would be achieved within 24 hours of plating. For electrophysiological studies, cells were removed from the culture flask by brief trypsinization and re-plated at low density onto glass cover slips. Cells were typically used for electrophysiological experiments within 24 to 72 hours after plating.
HEK cells stably transfected with hSCN9A were viewed under Hoffman contrast optics and placed in front of an array of flow pipes emitting either control or compound-containing extracellular solutions. All compounds were dissolved in dimethyl sulfoxide to make 10 mM stock solutions, which were then diluted into extracellular solution to attain the final concentrations desired. […] The voltage-dependence of inactivation was determined by applying a series of depolarizing prepulses (8 sec long in 10 mV increments) from a negative holding potential. The voltage was then immediately stepped to 0 mV to assess the magnitude of the sodium current. Currents elicited at 0 mV were plotted as a function of prepulse potential to allow estimation of the voltage at which 50% of the channels were inactivated (midpoint of inactivation or V1/2). Compounds were tested for their ability to inhibit hSCN9A sodium channels by activating the channel with a 20 msec voltage step to 0 mV following an 8 second conditioning prepulse to the empirically determined V1/2. Compound effect (% inhibition) was determined by difference in current amplitude before and after application of test compounds. For ease of comparison, “estimated IC-50” (EIC50) values were calculated from single point electrophysiology data by the following equation, (tested concentration, uM) X (100-% inhibition/% inhibition). Inhibition values <20% and >80% were excluded from the calculation.
Electrophysiological assays were conducted with PatchXpress 7000 hardware and associated software (Molecular Devices Corp). All assay buffers and solutions were identical to those used in conventional whole-cell voltage clamp experiments described above. hSCN9A cells were grown as above to 50%-80% confluency and harvested by trypsinization. Trypsinized cells were washed and resuspended in extracellular buffer at a concentration of 1×10^6 cells/ml. The onboard liquid handling facility of the PatchXpress was used for dispensing cells and application of test compounds. Determination of the voltage midpoint of inactivation was as described for conventional whole-cell recordings. Cells were then voltage-clamped to the empirically determined V1/2 and current was activated by a 20 msec voltage step to 0 mV.
Compounds of the Examples were tested in the assays described above and found to have the Nav1.7 EIC50 (μM) values specified in the table below. All data are derived from the PatchXpress assay unless explicitly stated otherwise.
As for `CS(=O)(=O)NC(=O)c1cc(Cl)c(Oc2cnc(OC(F)F)c(Cl)c2)cc1F` [Example 54, 5-chloro-4-{[5-chloro-6-(difluoromethoxy)pyridin-3-yl]oxy}-2-fluoro-N-(methylsulfonyl)benzamide], the concentration for half-maximal inhibition (IC50) is 180 nM.
The value for `[2H]C(C)(C)Oc1ncc(Oc2cc(F)c(C(=O)NS(C)(=O)=O)cc2Cl)cc1Cl` (single isomer, unassigned) [Example 46, 5-chloro-4-({5-chloro-6-[2-d1-propan-2-yloxy]pyridin-3-yl}oxy)-2-fluoro-N-(methylsulfonyl)benzamide] was 110 nM; that for `CS(=O)(=O)NC(=O)c1cc(Cl)c(Oc2cnc(C3CC3)c(Cl)c2)cc1F` [Example 21, 5-chloro-4-[(5-chloro-6-cyclopropylpyridin-3-yl)oxy]-2-fluoro-N-(methanesulfonyl)benzamide] was 30 nM.
`C[C@H](Oc1ncc(Oc2cc(F)c(C(=O)NS(C)(=O)=O)cc2Cl)cc1Cl)C(F)(F)F` [Example 98, 5-chloro-4-({5-chloro-6-[(1S)-2,2,2-trifluoro-1-methylethoxy]pyridin-3-yl}oxy)-2-fluoro-N-(methylsulfonyl)benzamide]: the IC50 was 12 nM.
The value for `CS(=O)(=O)NC(=O)c1cc(F)c(Oc2cnc(C(F)(F)F)nc2)cc1F` [Example 26, 2,5-difluoro-N-(methylsulfonyl)-4-{[2-(trifluoromethyl)pyrimidin-5-yl]oxy}benzamide] was over 10000 nM; that for `CC(Oc1ncc(Oc2cc(F)c(C(=O)NS(C)(=O)=O)cc2Cl)cc1Cl)C(F)(F)F` (stereo not shown) [Example 43, 5-chloro-4-{[5-chloro-6-(2,2,2-trifluoro-1-methylethoxy)pyridin-3-yl]oxy}-2-fluoro-N-(methylsulfonyl)benzamide] was 11 nM.
Turning to `CS(=O)(=O)NC(=O)c1cc(F)c(Oc2cnc(NC3CCCC3)c(Cl)c2)cc1F` [Example 138, 4-{[5-chloro-6-(cyclopentylamino)pyridin-3-yl]oxy}-2,5-difluoro-N-(methylsulfonyl)benzamide], the IC50 was 85 nM.
The value for `CS(=O)(=O)NC(=O)c1cc(Cl)c(Oc2cnc(-c3ccccc3)c(Cl)c2)cc1F` [Example 108, 5-chloro-4-[(5-chloro-6-phenylpyridin-3-yl)oxy]-2-fluoro-N-(methylsulfonyl)benzamide] was 240 nM; that for `CC(C)(C)c1ncc(Oc2cc(F)c(C(=O)NS(C)(=O)=O)cc2F)cc1Cl` [Example 51, 4-[(6-tert-butyl-5-chloropyridin-3-yl)oxy]-2,5-difluoro-N-(methylsulfonyl)benzamide] was 270 nM.
The value for `CS(=O)(=O)NC(=O)c1cc(F)c(Oc2cnc(OCC3CC(F)(F)C3)c(Cl)c2)cc1F` [Example 2, 4-({5-Chloro-6-[(3,3-difluorocyclobutyl)methoxy]pyridin-3-yl}oxy)-2,5-difluoro-N-(methylsulfonyl)benzamide] was 91 nM; that for `CC(C)COc1ncc(Oc2ccc(C(=O)NS(C)(=O)=O)cc2)cc1Cl` [Example 14, 4-[(5-Chloro-6-isobutoxypyridin-3-yl)oxy]-N-(methylsulfonyl)benzamide] was 140 nM.
The value for `CS(=O)(=O)NC(=O)c1cc(F)c(Oc2cnc(N3C[C@H]4CC[C@@H]3C4)c(Cl)c2)cc1F` [Example 131, 4-({6-[(1R,4S)-2-azabicyclo[2.2.1]hept-2-yl]-5-chloropyridin-3-yl}oxy)-2,5-difluoro-N-(methylsulfonyl)benzamide] was 71 nM; that for `CS(=O)(=O)NC(=O)c1cc(Cl)c(Oc2cnc(OC(C(F)(F)F)C(F)(F)F)c(Cl)c2)cc1F` [Example 77, 5-chloro-4-({5-chloro-6-[2,2,2-trifluoro-1-(trifluoromethyl)ethoxy]pyridin-3-yl}oxy)-2-fluoro-N-(methylsulfonyl)benzamide] was 15 nM; that for `CC(C)n1ncc2cc(Oc3cc(F)c(C(=O)NS(C)(=O)=O)cc3Cl)ccc21` [Example 20, 5-Chloro-2-fluoro-4-[(1-isopropyl-1H-indazol-5-yl)oxy]-N-(methylsulfonyl)benzamide] was over 3000 nM.
As to `CC(C)Oc1ncc(Oc2cc(F)c(C(=O)NS(C)(=O)=O)cc2Cl)cc1Cl` [Example 39, 5-chloro-4-[(5-chloro-6-isopropoxypyridin-3-yl)oxy]-2-fluoro-N-(methylsulfonyl)benzamide], the IC50 is 25 nM.
Take `CC(C)(C)Oc1ncc(Oc2cc(F)c(C(=O)NS(C)(=O)=O)cc2F)cc1Cl` [Example 34, 4-[(6-tert-butoxy-5-chloropyridin-3-yl)oxy]-2,5-difluoro-N-(methylsulfonyl)benzamide]: the IC50 is 33 nM.
Take `CS(=O)(=O)NC(=O)c1cc(Cl)c(Oc2cnc(N3CCC(F)(F)C3)c(Cl)c2)cc1F` [Example 95, 5-chloro-4-(5-chloro-6-(3,3-difluoropyrrolidin-1-yl)pyridin-3-yloxy)-2-fluoro-N-(methylsulfonyl)benzamide]: the IC50 was 37 nM.
The figure for `CS(=O)(=O)NC(=O)c1cc(F)c(Oc2cnc(C3CC3)c(Cl)c2)cc1F` [Example 50, 4-[(5-chloro-6-cyclopropylpyridin-3-yl)oxy]-2,5-difluoro-N-(methylsulfonyl)benzamide] is 160 nM; for `CN1CCC(Oc2ncc(Oc3cc(F)c(C(=O)NS(C)(=O)=O)cc3Cl)cc2Cl)CC1` [Example 30, 5-chloro-4-({5-chloro-6-[(1-methylpiperidin-4-yl)oxy]pyridin-3-yl}oxy)-2-fluoro-N-(methylsulfonyl)benzamide] it is 7600 nM; for `CC(C)Oc1ncc(Oc2ccc(C(=O)NS(C)(=O)=O)cc2F)cc1Cl` [Example 33, 4-[(5-chloro-6-isopropoxypyridin-3-yl)oxy]-3-fluoro-N-(methylsulfonyl)benzamide] it is 700 nM.
The figure for `COc1cc(C(=O)NS(C)(=O)=O)ccc1Oc1cnc(OC(C)C)c(Cl)c1` [Example 69, 4-[(5-chloro-6-isopropoxypyridin-3-yl)oxy]-3-methoxy-N-(methylsulfonyl)benzamide] is 250 nM; for `CCC(C)S(=O)(=O)NC(=O)c1cc(F)c(Oc2cnc(OC)c(Cl)c2)cc1F` (stereo not shown) [Example 18, N-(sec-butylsulfonyl)-4-[(5-chloro-6-methoxypyridin-3-yl)oxy]-2,5-difluorobenzamide] it is 970 nM; for `C[C@@H](Oc1ncc(Oc2cc(F)c(C(=O)NS(C)(=O)=O)cc2Cl)cc1Cl)C(F)(F)F` [Example 99, 5-chloro-4-({5-chloro-6-[(1R)-2,2,2-trifluoro-1-methylethoxy]pyridin-3-yl}oxy)-2-fluoro-N-(methylsulfonyl)benzamide] it is 15 nM.
On to `CC(C)Cc1ncc(Oc2cc(F)c(C(=O)NS(C)(=O)=O)cc2F)cc1Cl` [Example 49, 4-[(5-chloro-6-isobutylpyridin-3-yl)oxy]-2,5-difluoro-N-(methylsulfonyl)benzamide], for which the IC50 is 760 nM.
The figure for `CS(=O)(=O)NC(=O)c1ccc(Oc2cnc(N3CCCCC3)nc2)c(Cl)c1` [Example 4, 3-Chloro-N-(methylsulfonyl)-4-[(2-piperidin-1-ylpyrimidin-5-yl)oxy]benzamide] is 300 nM.
The figure for `C[C@@H]1CCCN1c1ncc(Oc2cc(F)c(C(=O)NS(C)(=O)=O)cc2F)cc1Cl` [Example 132, 4-({5-chloro-6-[(2R)-2-methylpyrrolidin-1-yl]pyridin-3-yl}oxy)-2,5-difluoro-N-(methylsulfonyl)benzamide] is 160 nM; for `CN(c1ncc(Oc2cc(F)c(C(=O)NS(C)(=O)=O)cc2F)cc1Cl)C1CC1` [Example 116, 4-({5-chloro-6-[cyclopropyl(methyl)amino]pyridin-3-yl}oxy)-2,5-difluoro-N-(methylsulfonyl)benzamide] it is 980 nM; for `CC(C)Oc1ccc(Oc2cc(F)c(C(=O)NS(C)(=O)=O)cc2F)cn1` [Example 47, 2,5-difluoro-4-[(6-isopropoxypyridin-3-yl)oxy]-N-(methylsulfonyl)benzamide] it is 680 nM.
